This data set is described as follows: Stability of each ingredient according to time and temperature (HPLC content). It is filed as physicochemical. On the set-up: content of ingredient: unit not given here. The note with it: for stability of ingredient content over time and temperature: summary in words of Table 3, FIGS. 6 to 8. How it is done: In order to compare the catechin contents of the fermented green tea extract, each sample was analyzed by WATERS 2695 HPLC manufactured by Alliance, and analyzed using an ODS (C18) column. […] Each numerical value in Table 1 indicates the wt % of the corresponding ingredient, based on the total weight ratio of the extract.

The mark [1] stands for this setting: Week 16: 45° C./Normal pressure.
Setting [2] is: Week 16: Room temperature/Normal pressure.
Setting [3] is: Week 25: 45° C./Normal pressure.
[4] abbreviates: Week 25: Refrigerated/Normal pressure.
Where [5] appears, read: Week 25: Room temperature/Normal pressure.

For the compound `Oc1cc(O)c2c(c1)O[C@H](c1cc(O)c(O)c(O)c1)[C@H](O)C2` [EGC, epigallocatechin], the content of ingredient turned out to be 2.12 (Day 1 (Feb. 20, 2017)); 2.12 (Week 1 (Feb. 27, 2017)); 2.19 (Week 2 (Mar. 6, 2017)); 2.50 under setting [1]; 2.84 under setting [2]; 2.28 under setting [3]. The content of ingredient by setting is: under setting [4], 2.61; under setting [5], 2.06.

Consider `O=C(O[C@@H]1Cc2c(O)cc(O)cc2O[C@H]1c1cc(O)c(O)c(O)c1)c1cc(O)c(O)c(O)c1` [GCG, (−)-gallocatechin gallate], for which the “stability of ingredient content over time and temperature” value is “maintained relatively stably”. Where the note is “Day 1 (Feb. 20, 2017)”, this compound yielded a content of ingredient of 7.80. The compound also came in with a content of ingredient (Week 1 (Feb. 27, 2017)) of 7.95. For the same compound, where the note is “Week 2 (Mar. 6, 2017)”, the content of ingredient is listed as 7.79. Under setting [1], this compound gave a content of ingredient of 8.74. The compound further came in with a content of ingredient under setting [2] of 8.72. In addition, the content of ingredient under setting [3] is on record as 7.62. Besides, under setting [4], the content of ingredient turned out to be 7.93. Under setting [5], this compound came in with a content of ingredient of 7.27.

For (−)-epigallocatechin gallate [EGCG], the “stability of ingredient content over time and temperature” value was “rapidly decreased after a predetermined period”. The compound further yielded a content of ingredient (Day 1 (Feb. 20, 2017)) of 7.48. For the same compound, where the note is “Week 1 (Feb. 27, 2017)”, the content of ingredient worked out at 7.70. Besides, the content of ingredient (Week 2 (Mar. 6, 2017)) was 7.53. The content of ingredient under setting [1] was 7.72. The content of ingredient under setting [2] is given as 7.79. Further, the content of ingredient under setting [3] was 6.61. Under setting [4], the content of ingredient was determined as 7.19. The content of ingredient under setting [5] came out at 6.19.

On to epicatechin 3-O-gallate [ECG], for which the content of ingredient (Day 1 (Feb. 20, 2017)) was found to be 2.22; the content of ingredient (Week 1 (Feb. 27, 2017)) worked out at 2.28; the content of ingredient (Week 2 (Mar. 6, 2017)) turned out to be 2.27; the content of ingredient under setting [1] was 2.38; the content of ingredient under setting [2] amounted to 2.36; the content of ingredient under setting [3] came to 2.21. The content of ingredient is 2.15 under setting [4] and 2.02 under setting [5].

The values above are taken from patent publication US11266706B2, “Method for preventing or alleviating lipid metabolism disorders using composition containing green tea extract with increased specific ingredient content” (AMOREPACIFIC CORPORATION, priority 2017, dated 2022).
